Experimental data: ChEMBL document CHEMBL4265888, “Discovery of super soft-drug modulators of sphingosine-1-phosphate receptor 1” (Bioorg Med Chem Lett, 2018)

Key:
[1] = biological target: Sphingosine 1-phosphate receptor 1 (Homo sapiens, UniProt P21453); test: Inhibition of S1PR1 (unknown origin) expressed in CHOK1 cells after 90 mins by beta-arresting recuitment assay; assay type: functional, cell-based
[2] = Drug level in human plasma treated with (5-methyl-2-oxo-1,3-dioxol-4-yl)methyl 4-((3-(2-hydroxyphenyl)-4-oxo-2-(propylimino)thiazolidin-5-ylidene)methyl)benzoate at 37 degC; assay type: ADME, cell-free
[3] = Drug metabolism in human plasma assessed as formation of 4-((3(2-hydroxyphenyl)-4-oxo-2-(propylimino)thiazolidin-5-ylidene)methyl)benzoic acid at 37 degC; assay type: ADME, cell-free
[4] = tested on: Homo sapiens; test: Antiinflammatory activity in psoriasis patient assessed as incident of 75% reduction in psoriasis area and severity index score at 40 mg, po dosed daily during phase 2 study for 28 weeks; assay type: functional; parameters: scale not given: the % may be the effect or the level left

Chain of Sphingosine 1-phosphate receptor 1 (P21453 whole entry): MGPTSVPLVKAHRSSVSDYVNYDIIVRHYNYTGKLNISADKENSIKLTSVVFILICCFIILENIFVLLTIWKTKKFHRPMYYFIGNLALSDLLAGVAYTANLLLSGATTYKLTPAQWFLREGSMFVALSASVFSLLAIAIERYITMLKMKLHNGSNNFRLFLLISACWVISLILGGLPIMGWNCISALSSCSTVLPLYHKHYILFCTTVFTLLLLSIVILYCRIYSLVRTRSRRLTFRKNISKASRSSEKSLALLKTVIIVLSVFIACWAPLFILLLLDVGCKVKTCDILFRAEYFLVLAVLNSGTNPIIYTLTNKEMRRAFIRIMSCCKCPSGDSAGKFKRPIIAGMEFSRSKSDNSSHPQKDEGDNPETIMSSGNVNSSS

| IC50 [1] [nM] | Drug metabolism [2] | Drug metabolism [3] | SMILES | Activity [4] [%] |
| --- | --- | --- | --- | --- |
| > 1000 | Metabolite_Notdetected |  | CCC/N=C1\S/C(=C\c2ccc(C(=O)O)cc2)C(=O)N1c1ccccc1O |  |
| > 1000 |  | Metabolite_Detected | CCC/N=C1\S/C(=C\c2ccc(C(=O)OCc3oc(=O)oc3C)cc2)C(=O)N1c1ccccc1O |  |
|  |  |  | CCC/N=C1\S/C(=C\c2ccc(OC[C@H](O)CO)c(Cl)c2)C(=O)N1c1ccccc1C [PONESIMOD] | 77 |
